ChEMBL document CHEMBL5390284, “Shikimate-Derived Meroterpenoids from the Ascidian-Derived Fungus Amphichorda felina SYSU-MS7908 and Their Anti-Glioma Activity” (J Nat Prod, 2023)
The source made the active and inactive calls.

Key:
U-87 MG = assay: Antiproliferative activity against human U-87 MG cells assessed as inhibition of cell growth at 100 uM incubated for 48 hrs by MTT assay; assay type: functional; conditions: U-87MG ATCC
U-251 = assay: Antiproliferative activity against human U-251 cells assessed as inhibition of cell growth at 100 uM incubated for 48 hrs by MTT assay; assay type: functional
T98G = assay: Antiproliferative activity against human T98G cells assessed as inhibition of cell growth at 100 uM incubated for 48 hrs by MTT assay; assay type: functional, cell-based

Measured: Activity

CC1(C)CC(=O)c2cc3c(c(Cl)c2O1)C[C@@H](O)C(C)(C)O3
inactive: all assays above

CO[C@@H]1C2=C(OC(C)(C)CC2=O)[C@@H]2O[C@@]23C[C@@H](OC(C)=O)C(C)(C)O[C@@H]13
inactive: all assays above

CC1(C)CC(=O)C2=C(O1)C(=O)[C@@]1(O)C[C@@H](O)C(C)(C)O[C@H]1[C@@H]2O
inactive: all assays above

CC(=O)O[C@@H]1Cc2c(cc3c(c2O)OC(C)(C)CC3=O)OC1(C)C
inactive: all assays above
